We go through seven compounds from patent US9359487B2, “Plasticizers based on mixed esters of succinate” (Proviron Holding N.V., priority 2012, dated 2016).

What all share (format): physicochemical
The nature of data set [1]: Volatility comparison of succinate and adipate ester (tests by the inventors). Particulars: versus comparable adipate ester DEHA.
A short description of data set [2]: Weight loss test (volatility) of transparent plastisole PVC film at 100° C. To be noted: for Volatile: Weight difference @ 100° C. After 4 days (%) / Volatile: Weight difference @ 100° C. After 7 days (%): transparent PVC film, 50 phr plasticiser; for delta vs. ref. (weight difference after 4 days) / delta vs. ref. (weight difference after 7 days): versus DINP. As to the method:
Their plasticising behaviour is compared in a plastisole based transparent PVC film.
(flooring type, top layer): Solvin 382NG 100 phr (obtainable from Solvay S.A., Belgium), plasticiser 50 phr, Ca/Zn stabiliser (Baerostab NT 306) 2.5 phr (obtainable from the company Baerlocher).
The transparent film so formed is subjected to amongst others a weight loss test (volatility) at 100° C. for respectively 4 and 7 days. The plasticiser efficiency is determined by means of a hardness measurement. A measure for the compatibility of the plasticiser is the transparency.

Data set [3] in a line: Extraction of plasticiser in water from plastisole samples. To be noted: plastisol, 50 phr plasticizer; for Extractions by H2O (Weight Difference %) 1 d: after 1 day; for Extractions by H2O (Weight Difference %) 7 d: after 7 days; for Extractions by H2O (Weight Difference %) dry: after drying the sample. As to the method: Various plastisoles were prepared on the basis of various plasticisers set forth in Table 1, according to the following formulae:
100 phr PVC (Vestolit B7021 ultra), 50 phr Plasticiser (Table 1), 3 phr ESBO (Drapex 39) (acting as anti-oxydans), 2 phr Ca/Zn stabiliser (Mark CZ 149).
Apart from the above, the viscosity property of the plastisole solution was determined after 24 h (viscosity vs. Shear) and the thickening was determined. Apart from this the extraction of the plasticiser in water (expressed as % weight gain/weight loss) after 1 day, 7 days were determined, as well as after drying the sample.

Data set [4] in a line: Volatility of pure plasticiser by thermal-gravimetrical analysis. To be noted: 200° C./10 min, pure compound.

As to `CCCCC(CC)COC(=O)CCC(=O)OCC(CC)CCCC` (centres unmarked) [DEHSu, di-2-ethylhexyl-succinate], the “volatility compared to di-2-ethylhexyl-adipate (DEHA)” value in data set [1] is listed as “approximately twice as volatile”.
Take `CC(C)CCCCCCOC(=O)c1ccccc1C(=O)OCCCCCCC(C)C` [DINP, Di-isononylphthalate]: in data set [2], the “Volatile: Weight difference @ 100° C. After 4 days (%)” value was −2.30% and the “Volatile: Weight difference @ 100° C. After 7 days (%)” value is listed as −4.00%. In data set [3], the “Extractions by H2O (Weight Difference %) 1 d” value came to 0.8%, the “Extractions by H2O (Weight Difference %) 7 d” value is on record as 1.8% and the “Extractions by H2O (Weight Difference %) dry” value is on record as 0.7%. Besides, in data set [4], the “Volatily plasticizer (weightloss [m %])” value was −4.3 m %.
Regarding `CC(C)CCCCCCOC(=O)CCC(=O)OCCCCCCC(C)C` [DINS, diisononylsuccinate], in data set [2], the “Volatile: Weight difference @ 100° C. After 7 days (%)” value was −24.50%, the “delta vs. ref. (weight difference after 4 days)” value is reported as “×7.6” and the “delta vs. ref. (weight difference after 7 days)” value is given as “×6.1”.
As to `CCCCC(CC)COC(=O)CCCCC(=O)OCC(CC)CCCC` (centres unmarked) [DOA, Di-octyladepate], in data set [3], the “Extractions by H2O (Weight Difference %) 1 d” value worked out at 1%, the “Extractions by H2O (Weight Difference %) 7 d” value came to 2.1% and the “Extractions by H2O (Weight Difference %) dry” value was 0.7%. The “Volatily plasticizer (weightloss [m %])” value in data set [4] is on record as −18.4 m %.
Regarding `CCCCC(CC)COC(=O)c1ccc(C(=O)OCC(CC)CCCC)cc1` (centres unmarked) [DOTP, Di-octyltherephthalate], in data set [3], the “Extractions by H2O (Weight Difference %) 1 d” value is 0.8%, the “Extractions by H2O (Weight Difference %) 7 d” value came out at 1.7% and the “Extractions by H2O (Weight Difference %) dry” value was determined as 0.7%. Also, in data set [4], the “Volatily plasticizer (weightloss [m %])” value is −4.8 m %.
On to `CCCCCC(CCC)COC(=O)CCC(=O)OCC(CCC)CCCCC` (centres unmarked) [DPHS, di-(2-propylheptyl)succinate], for which, in data set [2], the “Volatile: Weight difference @ 100° C. After 4 days (%)” value is listed as −11.50%, the “Volatile: Weight difference @ 100° C. After 7 days (%)” value is reported as −17.60%, the “delta vs. ref. (weight difference after 4 days)” value is on record as “×5.0” and the “delta vs. ref. (weight difference after 7 days)” value is “×4.4”.
Take `CC(C)CCCCCCOC(=O)c1ccccc1` [INB, Isononyl Benzoate]: in data set [3], the “Extractions by H2O (Weight Difference %) 1 d” value turned out to be 0.9%, the “Extractions by H2O (Weight Difference %) 7 d” value is 1.9% and the “Extractions by H2O (Weight Difference %) dry” value worked out at 0.5%. In addition, in data set [4], the “Volatily plasticizer (weightloss [m %])” value is −61.7 m %.
